Data as given in patent US12551576B2, “Chemiluminescent probes” (The General Hospital Corporation, priority 2020, dated 2026).
Entries after “also recorded” stand apart in the source; their conditions may differ.

Key:
Aβ plaques = Aβ plaques (Homo sapiens, UniProt P05067); test: In vitro histological study (brain slice staining); details: 5×FAD mouse brain slice incubated with ADLumin-1
Procedure: In vitro histological study: a fresh brain tissue from a 24-month old APP/PS1 mouse was fixed in 4% formaldehyde for 24 hours and transferred into 30% sucrose at 4° C. until the tissue sunk. Then the tissue was embedded in OCT with gradual cooling over dry ice. […] Then the slice was covered with FluoroShield mounting medium (Abcam) and sealed with nail polish.

[1] = ROS sensitivity of ADLumin-1; format: physicochemical; details: H2O2, ClO4−, TBHP, KO2; compared to O2 bubbling
Procedure: (§1) Oxygen and ROS sensitivity of ADLumin-1: A 100.0 μL DMSO solution of ADLumin-1 (200.0 μM) was added to a well in a 96-well plate. One group was bubbled with oxygen for 5 seconds at different time points, and the control group was sealed without bubbling. Once the bubbling was over, the plate was subjected to chemiluminescence intensity recording with the IVIS system with the open filter setting (500 nm-840 nm). For ROS tests, A PBS solution (240 μL) was incubated in an Eppendorf tube. To each of above tubes, different ROS (H2O2 30 μL, […] 30 μL, TBHP 30 μL and KO2 30 μL) was added, respectively. Then, a solution of ADLumin-1 in DMSO (30 μL, 250.0 μM) was added. Finally, 100.0 μL of the resulting solution was transferred into a well of 96-well plate, and triplicated samples were prepared. Chemiluminescence images were obtained with an IVIS system under the open filter (500 nm-840 nm).

Aβs = Aβs (Homo sapiens, UniProt P05067); test: In vivo chemiluminescence imaging with ADLumin-1; set-up: species or system 5×FAD mice
Sequence of Aβs (P05067 672-713 limits assumed): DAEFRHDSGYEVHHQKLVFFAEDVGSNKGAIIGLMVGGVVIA
Procedure: The IVIS Spectrum animal imaging system (PerkinElmer) was used for in vivo imaging. Images were acquired with open filter or specific emission filters. […] Chemiluminescent signals from the eyes were recorded at 0 and 45 min after i.v. injection of the probe. Sequence images were captured at 15 min after probe injection with the following parameters: sequence filter from 500 nm to 840 nm with an interval of 20 nm; Exposure time is 30 s, FOV=D. […] To evaluate the imaging results, an ROI was drawn around the brain or the eye region. Student t-test was used to calculate P values.

PA-K = test: Chemiluminescence detection of model aggregates (PA-K); format: binding; details: ADLumin-1 2.5 μM, PA-K 0.5 mg/ml
[2] = Oxygen sensitivity of ADLumin-1; format: physicochemical
Procedure: as §1

[3] = biological target: alpha-synuclein in human serum (Homo sapiens, UniProt P37840); test: Chemiluminescence of synuclein incubated with human serum
PA-E2 = test: Chemiluminescence detection of model aggregates (PA-E2 vs PA-E); format: binding
[4] = Fluorescence and chemiluminescence spectral studies; format: physicochemical
Procedure: Materials and Methods: reagents used for the synthesis were purchased from Sigma-Aldrich and used without further purification. Column chromatography was performed on a glass column slurry-packed with silica gel (60 Å, […]; SiliCycle Inc.). Recombinant Aβ peptide (1-40/42) were purchased from rPeptide (A-1163-1). Aβ aggregates for in vitro studies were generated by slow stirring of Aβ40 in PBS buffer for 3 days at room temperature. ^1H and ^13C NMR spectra were recorded at 500 MHz and 125 MHz on Bruker spectrometers in CDCl3, CD3OD or DMSO-d6 solutions at room temperature with tetramethylsilane (TMS, δ=0) as an internal standard. Liquid chromatography-mass spectrometry (LC-MS) was performed using an Agilent 1200 Series apparatus with an LC/MSD trap and Daly conversion dynode detector with UV detection at 254 nm. Fluorescence measurements were carried out using an F-7100 fluorescence spectrophotometer (Hitachi). Transgenic female 5×FAD mice and age-matched wild-type female mice were purchased from Jackson Laboratory. All animal experiments were approved by the Institutional Animal Use and Care Committee at Massachusetts General Hospital. The IVIS Spectrum animal imaging system (PerkinElmer) was used for in vitro and in vivo imaging.
Fluorescence spectral studies: Normally, all chemiluminescent molecules are fluorescent. The excitation and emission spectra of ADLumin-X were recorded and the emission peak of ADLumin-1 was around 590 nm (FIG. 1D) in DMSO, which is considerably longer than most of the commercially available chemiluminescence probes. The emission of ADLumin-2 is longer than that of ADLumin-1, due to its additional double-bond. (the emission peak of ADLumin-2 was 20 nm longer). […] Based on this fact, ADLumin-1 was used throughout this example, due to its high QY.
Chemiluminescence spectral studies: ADLumin-1 is stable in PBS buffer and organic solvents, including acetonitrile, dichloromethane and methanol. […] Without being bound by any theory, it is believed that the luminescence was due to the auto-oxidation of ADLumin-1. Although the mechanism of chemiluminescence of IPO derivatives has been studied, the mechanism of auto-oxidation has been rarely explored. In the course of the experiments, ADLumin-1 emitted very strong luminescence in pure DMSO (FIG. 2b). Unexpectedly, if the ADLumin-1 DMSO solution was stirred, even stronger luminescence can be detected (3.4-fold in FIG. 2b). Without being bound by any theory, it is believed that the luminescence was related to oxygen levels in DMSO. […] However, the increasing-fold decreased with cycles (FIG. 2c). […] Since no ROS were added into the DMSO solution, it is reasonable to infer that the auto-oxidation of ADLumin-1 was oxygen-level dependent. It is worthy to note that green fluorescent protein and luciferase/luciferin also dependent on oxygen for their proper imaging functions.

PA-K2 = test: Chemiluminescence detection of model beta-sheet aggregates (PA-K2); format: binding
[5] = chemiluminescence / bioluminescence spectra

Sequence of Aβ plaques (P05067 672-713 limits assumed): as above

Cc1nc2c[nH]c(/C=C/C=C/c3ccc(N(C)C)cc3)cn-2c1=O [ADLumin-1, 6-((1E,3E)-4-(4-(dimethylamino)phenyl)buta-1,3-dien-1-yl)-2-methylimidazo[1,2-a]pyrazin-3(7H)-one]
signal to noise ratio (SNR) of plaques (Aβ plaques): 2.93
chemiluminescence response towards ROS species [1]: no significant changes; also recorded: considerably low; also recorded: relatively small
chemiluminescence signal 5×FAD vs age-matched wild-type mice (Aβs; 5-month-old mice, summary statement): 1.80 fold
brain chemiluminescence signal difference 5×FAD vs WT (Aβs; 640 nm filter): 1.7 fold
brain chemiluminescence signal difference 5×FAD vs WT (Aβs; 15 minutes after i.v. injection, open filter): 1.7 fold
brain chemiluminescence signal difference 5×FAD vs WT (Aβs; 30 minutes after i.v. injection, open filter): 1.8 fold
chemiluminescence signals from eyes 5×FAD vs WT (Aβs; mouse, in vivo): 1.6 fold
chemiluminescence signals from noses 5×FAD vs WT (Aβs; mouse, in vivo): 1.7 fold
chemiluminescence signal increase vs ADLumin-1 only in PBS (PA-K): 2.49 fold
response time to O2 [2]: within seconds
luminescence increase after stirring ([2]; ADLumin-1 DMSO solution): 3.4 fold
chemiluminescence intensity increase after O2 bubbling ([2]; DMSO solution, after first 5 seconds bubbling): 27 fold
chemiluminescence difference vs control group [3]: 4.30 fold
chemiluminescence intensity PA-E2 group vs PA-E group (PA-E2): 4.39 fold
stability ([4]; PBS buffer and organic solvents, including acetonitrile, dichloromethane and methanol): stable
emission peak (FWHM comparison) [4, 5]: 540 nm
full width at half-maximum (FWHM) [4, 5]: 94 nm
fluorescence emission peak ([4]; in DMSO): around 590 nm
chemiluminescence emission peak ([4]; in the presence of 10% DMSO): around 540 nm
intensity ratio of PA-K2/PA-K (PA-K2): about 47.5 fold
low limit of detection (LOD) lower than that of ThT (PA-K2): 100 fold
chemiluminescence signal increase vs ADLumin-1 only in PBS (PA-K2; ADLumin-1 2.5 μM, PA-K2 0.5 mg/ml, PBS): 101 fold
peptide concentration range of concentration dependent intensity (PA-K2; PA-K2 and PA-E2): 0.001 to 1.0 mg/mL
peptide concentration at which PA-K and PA-K2 are differentiated (PA-K2; chemiluminescence): 0.001 mg/mL
ADLumin-1 concentration range of linear response (PA-K2; with 0.5 mg/ml PA-K2): 0.001 to 0.1 mg/mL
